52 molecules from patent US11266643B2, “Triaryl compounds for treatment of PD-L1 diseases” (CHEMOCENTRYX, INC., priority 2019, dated 2022) can be followed below.

The term IC50 denotes the point on the concentration scale where inhibition reaches its midpoint.

Chain of human PD-L1 (Q9NZQ7 19-239): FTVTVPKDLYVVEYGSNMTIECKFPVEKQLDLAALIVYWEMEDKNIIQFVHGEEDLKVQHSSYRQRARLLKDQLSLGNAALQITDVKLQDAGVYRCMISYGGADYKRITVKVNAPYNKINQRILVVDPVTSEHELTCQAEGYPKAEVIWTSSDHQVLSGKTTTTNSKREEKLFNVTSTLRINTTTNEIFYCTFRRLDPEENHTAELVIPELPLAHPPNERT

The first assay concerns the target human PD-L1 (Homo sapiens (Human), UniProt Q9NZQ7). Kind of assay: Enzyme-Linked Immunosorbent Assay (ELISA), PD-1/PD-L1 binding. As to conditions: PD-1/PD-L1 ELISA, human PD-L1 coated plates, Table 1. The protocol:
96 Well plates were coated with […] of human PD-L1 (obtained from R&D) in PBS overnight at 4° C. The wells were then blocked with 2% BSA in PBS (W/V) with 0.05% TWEEN-20 for 1 hour at 37° C. The plates were washed 3 times with PBS/0.05% TWEEN-20 and the compounds were serial diluted (1:5) in dilution medium and added to the ELISA plates. Human PD-1 […] 0.31 μg/mL (ACRO Biosystems) were added and incubated for 1 hour at 37° C. then washed 3 times with PBS/0.05% TWEEN-20. A second block was performed with 2% BSA in PBS (W/V)/0.05% TWEEN-20 for 10 min at 37° C. and the plates were washed 3 times with PBS/0.05% TWEEN-20. Streptavidin-HRP was added for 1 hour at 37° C. then the plates were washed 3 times with PBS/0.05% TWEEN-20. TMB substrate was added and reacted for 20 min at 37° C. A stop solution (2 N aqueous H2SO4) was added. The absorbance was read at 450 nm using a micro-plate spectrophotometer.
Using the methods described in the Examples above, the compounds in Table 2 were prepared & tested for biological activity using the ELISA method described above.
A general note: An ELISA detects its analyte on a solid surface through an enzyme-linked reagent.
As for `COc1cc(-c2cccc(-c3cccc(NC(=O)c4cncc(N)n4)c3C)c2C)cc(F)c1CN1CC(C(=O)O)C1` [Example 1.327], the IC50 was under 0.01 µM.
`COc1cc(-c2cccc(-c3cccc(NC(=O)c4ncc(C)cn4)c3C)c2C)cc(F)c1CN1CC(C(=O)O)C1` [Example 1.364] showed an IC50 of 0.01 to 1 µM.
Same read-out and setting: the same measure for `COc1cc(-c2cccc(-c3cccc(NC(=O)c4c[nH]c(=O)n(C)c4=O)c3C)c2C)cc(F)c1CN(C)CC(N)=O` [Example 1.251]: 0.01 to 1 µM; for `COc1cc(-c2cccc(-c3cccc(NC(=O)c4ccccn4)c3C)c2C)cc(F)c1CNC(CO)(CO)CO` [Example 1.379]: under 0.01 µM.
Same read-out and setting: the same measure for `COc1cc(-c2cccc(-c3cccc(NC(=O)c4ccccn4)c3C)c2C)cc(F)c1CN1CCOC[C@@H]1CO` [Example 1.372]: 0.01 to 1 µM.
On the same count and under the same terms, under `COc1cc(-c2cccc(-c3cccc(NC(=O)c4ccncn4)c3C)c2C)cc(F)c1CN1CC(O)C1` [Example 1.337] stands under 0.01 µM.
`COc1cc(-c2cccc(-c3cccc(NC(=O)c4cncn(C)c4=O)c3C)c2C)cc(F)c1CNCCS(=O)(=O)O` [Example 1.260] showed an IC50 of under 0.01 µM.
On the same count and under the same terms, the same measure for `COc1cc(-c2cccc(-c3cccc(NC(=O)c4cnc(N)cn4)c3C)c2C)cc(F)c1CN1CC(C(=O)O)C1` [Example 1.332]: under 0.01 µM; for `COc1cc(-c2cccc(-c3cccc(NC(=O)C4=CNCN(C)C4=O)c3C)c2C)cc(F)c1CNCCO` [Example 1.210]: under 0.01 µM; for `COc1cc(-c2cccc(-c3cccc(Nc4ncnc5cccnc45)c3C)c2C)cc(F)c1CN1CC(C(=O)O)C1` [Example 1.243]: 1 to 10 µM.
Consider `COc1cc(-c2cccc(-c3cccc(Nc4nccc5nccnc45)c3C)c2C)cc(F)c1CNC[C@@H]1CCC(=O)N1` [Example 1.200], for which the IC50 is under 0.01 µM.
For `COc1cc(-c2cccc(-c3cccc(NC(=O)c4c[nH]c(=O)n(C)c4=O)c3C)c2C)cc(F)c1CN1CCC2(C1)NC(=O)NC2=O` (stereo not shown) [Example 1.257], the IC50 lay within 0.01 to 1 µM.
Still for that read-out and setting: the same measure for `COc1cc(-c2cccc(-c3cccc(NC(=O)c4cccn(C)c4=O)c3C)c2C)cc(F)c1CN[C@@](C)(CO)C(=O)O` [Example 1.289]: 0.01 to 1 µM; for `COc1cc(-c2cccc(-c3cccc(NC(=O)c4ccc(C)cn4)c3C)c2C)cc(F)c1CN1CC(C(=O)O)C1` [Example 1.371]: under 0.01 µM; for `COc1cc(-c2cccc(-c3cccc(NC(=O)c4cnc(CC(=O)O)cn4)c3C)c2C)cc(F)c1CN` [Example 1.309]: under 0.01 µM.
The same measure, in the same setting: under `COc1cc(-c2cccc(-c3cccc(NC(=O)c4cncn(C)c4=O)c3C)c2C)cc(F)c1CNCC(C)(C)O` [Example 1.205] stands under 0.01 µM; under `COc1cc(-c2cccc(-c3cccc(NC(=O)c4ccccn4)c3C)c2Cl)cc(F)c1CN1CC(C(=O)O)C1` [Example 1.365], under 0.01 µM; under `COc1cc(-c2cccc(-c3cccc(Nc4nccc5c4OCCN5)c3C)c2C)cc(F)c1CN1CC(C(=O)O)C1` [Example 1.244], 0.01 to 1 µM.
Still for that read-out and setting: under `COc1cc(-c2cccc(-c3cccc(Nc4cccc5ncn(C)c(=O)c45)c3C)c2C)cc(F)c1CN1CC(C(=O)O)C1` [Example 1.287] stands under 0.01 µM.

Staying with this assay, now noted: human PD-1/PD-L1 ELISA, plates coated with human PD-L1.
Take `COc1cc(-c2cccc(-c3cccc(NC(=O)c4nn(C)c(=O)n(C)c4=O)c3C)c2C)cc(F)c1CNCC[C@@H]1CCC(=O)N1` [Example 1.088]: the IC50 was under 0.01 µM.
Molecule `COc1cc(-c2cccc(-c3cccc(NC(=O)c4cn(C)c(=O)n(C)c4=O)c3C)c2C)cc(F)c1CN[C@@H]1CCC[C@@H]1O` [Example 1.178] returned an IC50 of under 0.01 µM.
The molecule `COc1cc(-c2cccc(-c3cccc(NC(=O)c4cccn(C)c4=O)c3C)c2C)cc(F)c1CNC1COC1` [Example 1.169] gave a half-maximal inhibitory concentration (IC50) of 0.01 to 1 µM.
The same measure, in the same setting: the same measure for `COc1cc(-c2cccc(-c3cccc(Nc4nccc5nccnc45)c3C)c2C)cc(F)c1CN[C@@H]1CCNC1=O` [Example 1.130]: 0.01 to 1 µM; for `COc1cc(-c2cccc(-c3cccc(NC(=O)c4nn(C)c(=O)n(C)c4=O)c3C)c2C)cc(F)c1CNC1CCNC(=O)C1` (stereo not shown) [Example 1.055]: under 0.01 µM.
On the same count and under the same terms, the same measure for `COc1cc(-c2cccc(-c3cccc(NC(=O)c4cn(C)c(=O)n(C)c4=O)c3C)c2C)cc(F)c1CNCC[C@@H]1CCC(=O)N1` [Example 1.108]: under 0.01 µM; for `COc1cc(-c2cccc(-c3cccc(NC(=O)c4cncn(C)c4=O)c3C)c2C)cc(F)c1CN[C@H]1CCC[C@H]1O` [Example 1.161]: under 0.01 µM.
`COc1cc(-c2cccc(-c3cccc(Nc4nccc5nccnc45)c3Cl)c2C)cc(F)c1CNCC(C)(C)C(N)=O` [Example 1.022] showed a half-inhibitory concentration (IC50) of 0.01 to 1 µM.
On the same count and under the same terms, under `COc1cc(-c2cccc(-c3cccc(NC(=O)c4cn(C)c(=O)n(C)c4=O)c3C)c2C)cc(F)c1CN[C@H]1CCC[C@H]1O` [Example 1.147] stands under 0.01 µM.
Still for that read-out and setting: the same measure for `COc1cc(-c2cccc(-c3cccc(Nc4nccc5nccnc45)c3Cl)c2C)cc(F)c1CNC[C@@H]1CCC(=O)N1` [Example 1.019]: under 0.01 µM; for `COc1cc(-c2cccc(-c3cccc(NC(=O)c4cncn(C)c4=O)c3C)c2C)cc(F)c1CNCCN1CCCC1=O` [Example 1.099]: under 0.01 µM; for `COc1cc(-c2cccc(-c3cccc(NC(=O)c4c[nH]c(=O)n(C)c4=O)c3C)c2C)cc(F)c1CNCCC(N)=O` [Example 1.128]: under 0.01 µM.
`COc1cc(-c2cccc(-c3cccc(NC(=O)c4cn(C)c(=O)n(C)c4=O)c3C)c2C)cc(F)c1CNC(C)(C)CO` [Example 1.133] yielded an IC50 of under 0.01 µM.
Take `COc1cc(-c2cccc(-c3cccc(NC(=O)c4cn(C)c(=O)n(C)c4=O)c3C)c2C)cc(F)c1CN[C@@H]1COCC[C@H]1O` [Example 1.002]: the IC50 is under 0.01 µM.
Same read-out and setting: the same measure for `COc1cc(-c2cccc(-c3cccc(Nc4nccc5nccnc45)c3C)c2C)cc(F)c1CNC1CCOCC1` [Example 1.123]: under 0.01 µM.
The molecule `COc1cc(-c2cccc(-c3cccc(NC(=O)c4cn(C)c(=O)n(C)c4=O)c3C)c2C)cc(F)c1CN[C@H]1COC[C@@H]1O` [Example 1.072] gave an IC50 of under 0.01 µM.
The same measure, in the same setting: the same measure for `COc1cc(-c2cccc(-c3cccc(NC(=O)c4c[nH]c(=O)n(C)c4=O)c3C)c2C)cc(F)c1CNCC1CCCNC1=O` (stereo not shown) [Example 1.100]: under 0.01 µM; for `COc1cc(-c2cccc(-c3cccc(NC(=O)c4c[nH]c(=O)n(C)c4=O)c3C)c2C)cc(F)c1CN[C@H]1COC[C@@H]1O` [Example 1.079]: under 0.01 µM.
For the molecule `COc1cc(-c2cccc(-c3cccc(NC(=O)c4cn(C)c(=O)n(C)c4=O)c3Cl)c2Cl)cc(F)c1CN[C@H]1CCOC[C@H]1O` [Example 1.008], the IC50 was under 0.01 µM.

The assay is the same for the next values; noted with them: plate-coated human PD-L1, biotinylated Human PD-1, absorbance at 450 nm.
`COc1cc(-c2cccc(-c3cccc(NC(=O)c4cn(C)c(=O)n(C)c4=O)c3C)c2Cl)cc(F)c1CNC(C)(C)C(N)=O` [Example 2.085]: the IC50 is 0.01 to 1 µM.
As for `COc1cc(-c2cccc(-c3cccc(NC(=O)c4cn(C)c(=O)n(C)c4=O)c3C)c2Cl)cc(F)c1CN1CCC2(CCNC2=O)C1` (stereo not shown) [Example 2.007], the IC50 was under 0.01 µM.
The same measure, in the same setting: under `COc1cc(-c2cccc(-c3cccc(NC(=O)c4cn(C)c(=O)n(C)c4=O)c3Cl)c2Cl)cc(F)c1CN[C@H]1CCOC[C@H]1OC` [Example 2.025] stands under 0.01 µM; under `COc1cc(-c2cccc(-c3cccc(NC(=O)c4cn(C)c(=O)n(C)c4=O)c3Cl)c2Cl)cc(F)c1CNC(C)C` [Example 2.063], under 0.01 µM.
Still for that read-out and setting: the same measure for `COc1cc(-c2cccc(-c3cccc(NC(=O)c4cn(C)c(=O)n(C)c4=O)c3C)c2Cl)cc(F)c1CN[C@H]1COC[C@@H]1O` [Example 2.092]: under 0.01 µM; for `COc1cc(-c2cccc(-c3cccc(NC(=O)c4c[nH]c(=O)n(C)c4=O)c3Cl)c2Cl)cc(F)c1CNCC1(C(N)=O)CC1` [Example 2.026]: under 0.01 µM.
The same measure, in the same setting: the same measure for `COc1cc(-c2cccc(-c3cccc(NC(=O)c4cn(C)c(=O)n(C)c4=O)c3C)c2Cl)cc(F)c1CN[C@@H]1COC[C@H]1O` [Example 2.090]: under 0.01 µM; for `CCOc1cc(-c2cccc(-c3cccc(NC(=O)c4cn(C)c(=O)n(C)c4=O)c3Cl)c2Cl)cc(F)c1CN[C@@H]1CCOC[C@@H]1O` [Example 2.037]: under 0.01 µM; for `COc1cc(-c2cccc(-c3cccc(NC(=O)c4cn(C)c(=O)n(C)c4=O)c3Cl)c2Cl)cc(F)c1CN1CC2(CCNC2=O)C1` [Example 2.002]: under 0.01 µM.
Molecule `COc1cc(-c2cccc(-c3cccc(NC(=O)c4cn(C)c(=O)n(C)c4=O)c3C)c2Cl)cc(F)c1CN[C@H]1CCOC[C@@H]1O` [Example 2.089] came in with an IC50 of under 0.01 µM.
`COc1cc(-c2cccc(-c3cccc(NC(=O)c4cn(C)c(=O)n(C)c4=O)c3Cl)c2Cl)cc(F)c1CN(C)[C@H]1CNC(=O)C1` [Example 2.055]: the IC50 is 0.01 to 1 µM.
In turn, `CCOc1cc(-c2cccc(-c3cccc(NC(=O)c4cn(C)c(=O)n(C)c4=O)c3C)c2Cl)cc(F)c1CN[C@@H]1CCOC[C@@H]1O` [Example 2.039] had an IC50 of under 0.01 µM.
Still for that read-out and setting: the same measure for `COc1cc(-c2cccc(-c3cccc(NC(=O)c4cn(C)c(=O)n(C)c4=O)c3Cl)c2Cl)cc(F)c1CN[C@@H]1COC[C@H]1O` [Example 2.075]: under 0.01 µM.
Molecule `COc1c(CNC[C@@H]2CCC(=O)N2)ccc(-c2cccc(-c3cccc(NC(=O)c4cn(C)c(=O)n(C)c4=O)c3Cl)c2Cl)c1F` [Example 2.001] came in with a half-maximal inhibitory concentration (IC50) of under 0.01 µM.
